Test results as given in patent US7915276B2, “Berberrubine derivatives having antifungal activities” (priority 2006, dated 2011).

Tests used:
[1] = biological target: T1, chitin synthase 1 of Candida albicans chs2 Δ chs 3 Δ (Candida albicans, UniProt P23316); assay: In vitro enzyme assay for chitin synthase 1 of Candida albicans (enzyme 1); type: biochemical; conditions: relative to polyoxin D (50% inhibitory activity = value 5)
T1 construct: Crude enzyme was prepared using the Candida albicans chs2 Δ chs 3 Δ mutant; endogenous in cells; host or cells: Candida albicans chs2Δ/chs2Δ chs3Δ/chs3Δ mutant; 130,000 x g membrane pellet
T1 sequence (P23316 whole entry, stated change not applied): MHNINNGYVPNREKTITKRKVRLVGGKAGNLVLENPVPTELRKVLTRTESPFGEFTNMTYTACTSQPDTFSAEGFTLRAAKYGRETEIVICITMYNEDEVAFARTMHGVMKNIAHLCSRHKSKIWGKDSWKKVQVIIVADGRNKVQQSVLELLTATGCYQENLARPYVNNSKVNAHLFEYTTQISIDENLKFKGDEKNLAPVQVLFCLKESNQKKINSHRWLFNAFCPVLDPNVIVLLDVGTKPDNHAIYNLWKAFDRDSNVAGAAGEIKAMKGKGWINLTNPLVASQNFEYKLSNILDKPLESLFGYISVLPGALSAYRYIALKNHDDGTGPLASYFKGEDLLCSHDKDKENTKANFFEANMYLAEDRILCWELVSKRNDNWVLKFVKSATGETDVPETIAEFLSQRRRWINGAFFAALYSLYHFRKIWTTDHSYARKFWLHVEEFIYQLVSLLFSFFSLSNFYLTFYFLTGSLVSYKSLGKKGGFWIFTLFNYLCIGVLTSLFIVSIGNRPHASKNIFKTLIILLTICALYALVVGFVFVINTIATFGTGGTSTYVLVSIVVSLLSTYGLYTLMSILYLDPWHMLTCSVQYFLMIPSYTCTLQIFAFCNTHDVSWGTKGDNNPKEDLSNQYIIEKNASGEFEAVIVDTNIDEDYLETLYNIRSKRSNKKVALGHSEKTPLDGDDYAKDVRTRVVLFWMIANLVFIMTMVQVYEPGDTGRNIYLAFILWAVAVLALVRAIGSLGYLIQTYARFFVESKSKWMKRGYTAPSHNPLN
Protocol: Crude enzyme was prepared using the Candida albicans chs2 Δ chs 3 Δ mutant (chs2 Δ::hisG/chs2 Δ::hisG chs3 Δ::hisG/chs3 Δ::hisG) strain, which can only produce the chitin synthase 1. The strain was inoculated with the SDA (Sabouraud dextrose agar) culture medium (4% dextrose, 1% peptone, pH 5.6) and cultured at 30° C. for 15-17 hours until the absorbance at 550nm reaches 0.7. The cells were collected and suspended in a 50 mM Tris-HCl (pH 7.5) buffer solution containing 5 mM magnesium acetate. After centrifugation at 8,000×g for 10 minutes, the pellets were suspended in the same Tris-HCl buffer solution. The suspension was divided into aliquots in 50 mL conical test tubes. After adding glass beads, the cells were disrupted by vigorously vortexing with an interval of 30 seconds. The cell residues were removed by centrifuging at 3,000×g for 5 minutes. The supernatant was ultra-centrifuged at 130,000×g for 1 hour. The resultant pellets were collected and suspended in 50 mM Tris-HCl (pH 7.5) containing 33% glycerol, to a final volume of 1.6 mg/g (wet weight) of yeast used. The suspension was divided into aliquots and kept at −70° C. until it is used.
(§1) The inhibitory activities against the chitin synthase 1 of Candida albicans chs2 Δ chs 3 Δ (abbreviated as ‘enzyme 1’) and the chitin synthase 2 of Saccharomyces cerevisiae ECY38-38A(pAS6)(abbreviated as ‘enzyme 2’) was examined for compound Nos. 1 to 70 compound and polyoxin D, a positive control compound.
(§2) The inhibitory activity against the chitin synthase 1 prepared from Candida albicans and the chitin synthase 2 prepared from Saccharomyces cerevisiae were examined as follows. A reaction mixture containing 32 mM Tris-HCl (pH 7.5), 2 mM cobalt acetate, 1.1 mM UDP-[U-^14C]-N-acetyl-d-glucosamine (GlcNAc) (400,000 cpm/μmol), 2 μL of trypsin (0.75 mg/mL), 20 μL of each crude enzyme and 14 μL of each test sample was kept at 30° C. for 15 minutes to activate the enzyme. Then, 2 μL of trypsin inhibitor (1.5 mg/mL) was added and the mixture was kept in an ice bath for 10 minutes to deactivate trypsin. 2 μL of 0.8 M N-acetyl-d-glucosamine was added to a total volume of 50 μL and reaction was performed at 30° C. for 90 minutes. The reaction was stopped using 1 mL of 10% TCA solution and the reaction solution was filtered with a GF/C filter and dried at room temperature. After adding 3 mL of a scintillation cocktail solution, the amount of isotopes was measured using a liquid scintillation counter. Percentage inhibition against each enzyme was calculated by the following Equation 1.
(§3) The control group was not added with a test sample in the reaction mixture and that of the untreated group contained neither the test sample nor the crude enzyme.
(§4) A 50% inhibitory activity of polyoxin D against the enzyme was given the value 5. A compound having the same inhibitory activity as that of polyoxin D at the same concentration was given the value 5. Compounds having the inhibitory activity at 2-fold, 4-fold, 8-fold and 16-fold higher concentrations than that of polyoxin D were given the values of 4, 3, 2 and 1, respectively. On the other hand, compounds having the inhibitory activity at ½, ¼ and ⅛ lower concentrations than that of polyoxin D were given the values of 6, 7 and 8, respectively.

[2] = biological target: T2, chitin synthase 2 of Saccharomyces cerevisiae ECY38-38A(pAS6) (Saccharomyces cerevisiae, UniProt P14180); assay: In vitro enzyme assay for chitin synthase 2 of Saccharomyces cerevisiae (enzyme 2); type: biochemical; conditions: relative to polyoxin D (50% inhibitory activity = value 5)
T2 construct: made in house; host or cells: Saccharomyces cerevisiae ECY38-38A (chs1-23 chs2::LEU2 cal1/csd2) carrying plasmid pAS6, grown in galactose medium; 130,000 x g membrane pellet
T2 sequence (P14180 whole entry): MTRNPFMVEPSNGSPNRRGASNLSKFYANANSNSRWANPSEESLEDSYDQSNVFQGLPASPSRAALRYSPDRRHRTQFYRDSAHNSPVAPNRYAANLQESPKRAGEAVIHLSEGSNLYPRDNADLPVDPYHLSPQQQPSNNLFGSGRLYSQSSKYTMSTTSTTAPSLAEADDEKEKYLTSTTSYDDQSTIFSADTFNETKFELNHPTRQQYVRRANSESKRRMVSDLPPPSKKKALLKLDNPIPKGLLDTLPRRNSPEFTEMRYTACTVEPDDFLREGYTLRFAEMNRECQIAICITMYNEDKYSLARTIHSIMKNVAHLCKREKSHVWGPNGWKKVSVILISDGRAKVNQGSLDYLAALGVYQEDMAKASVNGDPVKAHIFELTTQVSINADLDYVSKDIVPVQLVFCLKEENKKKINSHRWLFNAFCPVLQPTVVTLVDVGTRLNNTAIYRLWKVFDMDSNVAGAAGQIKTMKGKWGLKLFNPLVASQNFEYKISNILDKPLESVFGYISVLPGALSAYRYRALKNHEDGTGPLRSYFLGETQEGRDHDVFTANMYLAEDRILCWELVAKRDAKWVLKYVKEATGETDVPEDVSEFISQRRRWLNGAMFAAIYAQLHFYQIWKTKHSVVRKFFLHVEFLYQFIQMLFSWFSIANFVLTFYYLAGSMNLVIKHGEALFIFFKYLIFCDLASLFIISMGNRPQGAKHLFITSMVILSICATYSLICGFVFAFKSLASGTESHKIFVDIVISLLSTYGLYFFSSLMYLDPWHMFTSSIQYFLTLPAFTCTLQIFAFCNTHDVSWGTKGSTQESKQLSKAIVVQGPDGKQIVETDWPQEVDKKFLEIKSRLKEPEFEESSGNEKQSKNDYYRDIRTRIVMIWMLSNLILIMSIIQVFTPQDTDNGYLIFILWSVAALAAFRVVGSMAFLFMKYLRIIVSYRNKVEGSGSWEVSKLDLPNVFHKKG
Protocol: Crude enzyme was prepared using the recombinant Saccharomyces cerevisiae ECY38-38A(pAS6) (MATa chs1-23 chs2::LEU2 cal 1/csd 2 ura 3-52 trp 1-1 leu 2-2 pAS6) strain, which can produce the chitin synthase 2 only. The strain was inoculated with the YPG culture medium (1% yeast extract, 2% peptone, 2% galactose) and cultured at 30° C. overnight. Then, it was inoculated with a fresh YPG culture medium and cultured for 15-17 hours until the Absorbance at 550 nm reaches 1.0. The cells were collected and suspended in 50 mM Tris-HCl (pH 7.5) buffer containing 5 mM magnesium acetate. After centrifugation at 8,000×g for 10 minutes, the pellets were suspended in the same Tris-HCl buffer solution. The suspension was divided into aliquots in 50 mL conical test tubes. After adding the glass beads, the cells were disrupted by vigorously vortexing with an interval of 30 seconds. The cell residues were removed by centrifuging at 3,000×g for 5 minutes. The supernatant was ultra-centrifuged at 130,000×g for 1 hour. The resultant pellets were collected and suspended in 50 mM Tris-HCl (pH 7.5) containing 33% glycerol, to a final volume of 1.6 mg/g (wet weight) of yeast used. The suspension was divided into aliquots and kept at −70° C. until it is used.
as §1, §2, §3, §4

Molecule | Relative activity Enzyme 1 [1] | Relative activity Enzyme 2 [2]
13-(4-Trifluoromethoxybenzyl)-9-O-hexylberberrubine iodide [Compound No. 34] | 2 (Compounds having the inhibitory activity at 2-fold, 4-fold, 8-fold and 16-fold higher concentrations than that of polyoxin D were given the values of 4, 3, 2 and 1, respectively) | 5 (A compound having the same inhibitory activity as that of polyoxin D at the same concentration was given the value 5)
13-(4-Trifluoromethoxybenzyl)berberrubine [Compound No. 3] | 1 (Compounds having the inhibitory activity at 2-fold, 4-fold, 8-fold and 16-fold higher concentrations than that of polyoxin D were given the values of 4, 3, 2 and 1, respectively) | 3 (Compounds having the inhibitory activity at 2-fold, 4-fold, 8-fold and 16-fold higher concentrations than that of polyoxin D were given the values of 4, 3, 2 and 1, respectively)
13-(4-Trifluoromethylbenzyl)-9-O-butylberberrubine chloride [Compound No. 68] | 3 (Compounds having the inhibitory activity at 2-fold, 4-fold, 8-fold and 16-fold higher concentrations than that of polyoxin D were given the values of 4, 3, 2 and 1, respectively) | 6 (compounds having the inhibitory activity at ½, ¼ and ⅛ lower concentrations than that of polyoxin D were given the values of 6, 7 and 8, respectively)
13-(4-Trifluoromethylbenzyl)-9-O-butylberberrubine iodide [Compound No. 36] | 3 (Compounds having the inhibitory activity at 2-fold, 4-fold, 8-fold and 16-fold higher concentrations than that of polyoxin D were given the values of 4, 3, 2 and 1, respectively) | 6 (compounds having the inhibitory activity at ½, ¼ and ⅛ lower concentrations than that of polyoxin D were given the values of 6, 7 and 8, respectively)
13-(4-Trifluoromethylbenzyl)-9-O-hexylberberrubine chloride [Compound No. 69] | 3 (Compounds having the inhibitory activity at 2-fold, 4-fold, 8-fold and 16-fold higher concentrations than that of polyoxin D were given the values of 4, 3, 2 and 1, respectively) | 5 (A compound having the same inhibitory activity as that of polyoxin D at the same concentration was given the value 5)
13-(4-Trifluoromethylbenzyl)-9-O-hexylberberrubine iodide [Compound No. 37] | 2 (Compounds having the inhibitory activity at 2-fold, 4-fold, 8-fold and 16-fold higher concentrations than that of polyoxin D were given the values of 4, 3, 2 and 1, respectively) | 5 (A compound having the same inhibitory activity as that of polyoxin D at the same concentration was given the value 5)
13-(4-Trifluoromethylbenzyl)berberrubine [Compound No. 4] | 1 (Compounds having the inhibitory activity at 2-fold, 4-fold, 8-fold and 16-fold higher concentrations than that of polyoxin D were given the values of 4, 3, 2 and 1, respectively) | 3 (Compounds having the inhibitory activity at 2-fold, 4-fold, 8-fold and 16-fold higher concentrations than that of polyoxin D were given the values of 4, 3, 2 and 1, respectively)
13-(4-tert-Butylbenzyl)berberrubine [Compound No. 5] | 2 (Compounds having the inhibitory activity at 2-fold, 4-fold, 8-fold and 16-fold higher concentrations than that of polyoxin D were given the values of 4, 3, 2 and 1, respectively) | 4 (Compounds having the inhibitory activity at 2-fold, 4-fold, 8-fold and 16-fold higher concentrations than that of polyoxin D were given the values of 4, 3, 2 and 1, respectively)
COc1ccc2c(Cc3ccc(C(F)(F)F)cc3)c3[n+](cc2c1OC)CCc1cc2c(cc1-3)OCO2.[Cl-] [Comparative compound 2, reference compound] | <1 (Compounds having the inhibitory activity at 2-fold, 4-fold, 8-fold and 16-fold higher concentrations than that of polyoxin D were given the values of 4, 3, 2 and 1, respectively) | 2 (Compounds having the inhibitory activity at 2-fold, 4-fold, 8-fold and 16-fold higher concentrations than that of polyoxin D were given the values of 4, 3, 2 and 1, respectively)
COc1ccc2c(Cc3ccc(C(OC)(OC)OC)cc3)c3[n+](cc2c1OC)CCc1cc2c(cc1-3)OCO2.[Cl-] [Comparative compound 3, reference compound] | <1 (Compounds having the inhibitory activity at 2-fold, 4-fold, 8-fold and 16-fold higher concentrations than that of polyoxin D were given the values of 4, 3, 2 and 1, respectively) | 1 (Compounds having the inhibitory activity at 2-fold, 4-fold, 8-fold and 16-fold higher concentrations than that of polyoxin D were given the values of 4, 3, 2 and 1, respectively)
COc1ccc2c(Cc3cc(F)c(F)c(F)c3)c3[n+](cc2c1OCc1ccc(C(C)(C)C)cc1)CCc1cc2c(cc1-3)OCO2.[Br-] [Compound No. 29, 13-(3,4,5-Trifluorobenzyl)-9-O-(4-tert-butylbenzyl)berberrubine bromide] | 2 (Compounds having the inhibitory activity at 2-fold, 4-fold, 8-fold and 16-fold higher concentrations than that of polyoxin D were given the values of 4, 3, 2 and 1, respectively) | 5 (A compound having the same inhibitory activity as that of polyoxin D at the same concentration was given the value 5)
COc1cc(Cc2c3[n+](cc4c(OCc5ccc(C(C)(C)C)cc5)c(OC)ccc24)CCc2cc4c(cc2-3)OCO4)cc(OC)c1OC.[Br-] [Compound No. 32, 13-(3,4,5-Trimethoxybenzyl)-9-O-(4-tert-butylbenzyl)berberrubine bromide] | 2 (Compounds having the inhibitory activity at 2-fold, 4-fold, 8-fold and 16-fold higher concentrations than that of polyoxin D were given the values of 4, 3, 2 and 1, respectively) | 4 (Compounds having the inhibitory activity at 2-fold, 4-fold, 8-fold and 16-fold higher concentrations than that of polyoxin D were given the values of 4, 3, 2 and 1, respectively)
COc1ccc2c(Cc3ccc(OC(F)(F)F)cc3)c3[n+](cc2c1OCc1ccc(C(C)(C)C)cc1)CCc1cc2c(cc1-3)OCO2.[Br-] [Compound No. 35, 13-(4-Trifluoromethoxybenzyl)-9-O-(4-tert-butylbenzyl)berberrubine bromide] | 2 (Compounds having the inhibitory activity at 2-fold, 4-fold, 8-fold and 16-fold higher concentrations than that of polyoxin D were given the values of 4, 3, 2 and 1, respectively) | 5 (A compound having the same inhibitory activity as that of polyoxin D at the same concentration was given the value 5)
